Numbered stars: 1 amine (or outer) side, 2 acyl side, 3 side chain; on linkers, the order of the positions; unused ones are H or OH. Square brackets hold non-standard residues; d marks the D form. Peptide text beside a SMILES is read from it. X1 = O=C([C@@H](C[C@H]1CO1)O[*:1])[*:2]; NMeI = CC[C@H](C)[C@H](NC)C(=O)O; NMeβAla = CN(CCC(=O)[*:2])[*:1]; NMeV = CN[C@H](C(=O)O)C(C)C; NMeA = CN[C@@H](C)C(=O)O; βAla = NCCC(=O)O

The test has as its system Osteoclast. As to the kind of experiment: Induction of morphological changes in mouse Osteoclast cells incubated for 24 hrs by TRAP staining based fluorescence microscopy analysis. The format is functional.
As for `CC[C@H](C)[C@H]1C(=O)N(C)[C@@H](C(C)C)C(=O)N(C)[C@@H](C)C(=O)NCCC(=O)O[C@H](C[C@H]2CO2)C(=O)N2CCC[C@H]2C(=O)N1C` (cyclo([NMeA][βAla][X1]P[NMeI][NMeV])), the Activity turned out to be 12.5 µM.
For `CC[C@H](C)[C@@H]1NC(=O)[C@@H]2CCCN2C(=O)[C@@H](C[C@H]2CO2)OC(=O)CCNC(=O)[C@H](C)NC(=O)[C@H](C(C)C)N(C)C1=O` (cyclo(A[βAla][X1]PI[NMeV])), the Activity is over 50 µM.
Under `CC[C@H](C)[C@@H]1NC(=O)[C@@H]2CCCN2C(=O)[C@@H](C[C@H]2CO2)OC(=O)CCNC(=O)[C@H](C)N(C)C(=O)[C@H](C(C)C)NC1=O` (cyclo(IV[NMeA][βAla][X1]P)) stands 1.6 µM; under `CC[C@H](C)[C@@H]1NC(=O)[C@@H]2CCCN2C(=O)[C@@H](C[C@H]2CO2)OC(=O)CCN(C)C(=O)[C@H](C)N(C)C(=O)[C@H](C(C)C)N(C)C1=O` (cyclo(I[NMeV][NMeA][NMeβAla][X1]P)), 50 µM.

The record behind these values is ChEMBL document CHEMBL5550176, “Destruxin E backbone modification effects on osteoclast Morphology: Synthesis and SAR study of N-Desmethyl and N-Methyl analogs” (2024).
